Here are results for ten compounds from ChEMBL document CHEMBL1201862, “PubChem BioAssay data set” (2004).

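Dose response: 5 concentrations. Exposure: 48 h. Format: 96-well plates. Endpoint: linear interpolation; highest concentration if not reached. Here, GI50 denotes the concentration required for 50% inhibition of growth.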 The source made the active and inactive calls. Cut-off read from the data, not from the text of the source: active = GI50 up to about 1.1 µM and inactive = higher.

Some test systems named below: IGROV-1; 786-0; OVCAR-4; A549; KM12; HL-60; HCC 2998; MDA-MB-435; SN12C; MOLT-4; CAKI-1; NCI/ADR-RES; CCRF-CEM; RXF 393; MDA-N; U-251; LOX IMVI; K562; SF-295.
Common to all, as to test: NCI anticancer screen, dose series, 48 h

As to `COc1cccc(C2c3cc4c(cc3OC(N3CCOCC3)C2C)OCO4)c1O` (stereo not given), the GI50 with IGROV-1 is 6.19 µM (inactive); in the test with 786-0, 5.6 µM (inactive); with OVCAR-4 it was 9.86 µM (inactive); in the test on A549, 4.82 µM (inactive); with KM12, 3.48 µM (inactive); in the test with HL-60, 2.26 µM (inactive). Besides, the GI50 with HCC 2998 is 7.23 µM (inactive); in the test on MDA-MB-435 it was 1.24 µM (inactive); in the test with SN12C it was 6.59 µM (inactive); in the test with MOLT-4 it was 4.02 µM (inactive); in the test with CAKI-1 it was 2.66 µM (inactive); with NCI/ADR-RES, 7.21 µM (inactive). Besides, the GI50 is 3.28 µM (inactive) with CCRF-CEM; 2.13 µM (inactive) in the test on RXF 393; 1.03 µM (active) with MDA-N; 0.38 µM (active) in the test on U-251; 5.31 µM (inactive) in the test with LOX IMVI; 3.06 µM (inactive) in the test on K562. For the same compound, in the test on SF-295, the GI50 was 3.64 µM (inactive).
On to `COC(=O)CCC(=O)NC1=C(Nc2ccccc2)C(=O)c2ccccc2C1=O`, for which the GI50 is 11.5 µM (inactive) with IGROV-1; 12.3 µM (inactive) in the test with 786-0; 10.5 µM (inactive) in the test with OVCAR-4; 18.8 µM (inactive) with A549; 15.7 µM (inactive) in the test with KM12; 3.36 µM (inactive) with HL-60. Moreover, the GI50 in the test on HCC 2998 was 22.9 µM (inactive); in the test on MDA-MB-435 it was 1.97 µM (inactive); in the test with SN12C, 13.6 µM (inactive); in the test on MOLT-4, 12.1 µM (inactive); in the test with CAKI-1, 14.4 µM (inactive); with NCI/ADR-RES it was 14.8 µM (inactive). Moreover, the GI50 with CCRF-CEM is 9.95 µM (inactive); in the test with RXF 393, 8.81 µM (inactive); with MDA-N it was 2.04 µM (inactive); with U-251, 11.7 µM (inactive); in the test on LOX IMVI, 4.34 µM (inactive); in the test on K562, 14.8 µM (inactive). Besides, in the test with SF-295, the GI50 is 15.4 µM (inactive).
Consider `CCC1(CC)CC(=NNS(=O)(=O)c2ccc(C)cc2)C1`, for which the GI50 with IGROV-1, in the test with 786-0, in the test with OVCAR-4, in the test with A549, in the test with KM12 and in the test with HL-60 was > 100 µM (inactive) each time. For the same compound, the GI50 in the test on HCC 2998, in the test with MDA-MB-435, with SN12C, in the test with MOLT-4, in the test with CAKI-1 and in the test with NCI/ADR-RES was > 100 µM (inactive) each time. Moreover, the GI50 in the test with CCRF-CEM, in the test with RXF 393, in the test with MDA-N, in the test with U-251, in the test on LOX IMVI and in the test on K562 was > 100 µM (inactive) in each case. The GI50 with SF-295 is > 100 µM (inactive).
As for `COc1ccc2cc1Oc1ccc(cc1)C(Sc1ccccc1)CCOC(=O)CC2` (stereo not given), the GI50 is > 100 µM (inactive) with IGROV-1; > 100 µM (inactive) in the test with 786-0; > 100 µM (inactive) with OVCAR-4; > 100 µM (inactive) in the test on A549; > 100 µM (inactive) with KM12; 28.1 µM (inactive) in the test on HL-60. Also, the GI50 in the test with HCC 2998, in the test with MDA-MB-435, in the test on SN12C, in the test on MOLT-4, in the test on CAKI-1 and in the test on NCI/ADR-RES was > 100 µM (inactive) in each case. In addition, the GI50 in the test on CCRF-CEM was > 100 µM (inactive); in the test with RXF 393, > 100 µM (inactive); with MDA-N it was > 100 µM (inactive); in the test with U-251, > 100 µM (inactive); with LOX IMVI, > 100 µM (inactive); in the test with K562, 82.8 µM (inactive). Also, the GI50 in the test with SF-295 was > 100 µM (inactive).
For the compound `C1=N\CCNCC/N=C/c2ccccc2OCc2cccc(n2)COc2ccccc2/1`, the GI50 in the test on IGROV-1 was 24.5 µM (inactive); with 786-0 it was 6.7 µM (inactive); with OVCAR-4 it was 13.7 µM (inactive); in the test on A549, > 100 µM (inactive); in the test with KM12, 20.5 µM (inactive); with HL-60, 2.56 µM (inactive). In addition, the GI50 in the test on HCC 2998 is 19.5 µM (inactive); in the test with MDA-MB-435, 3.86 µM (inactive); in the test on SN12C, 13.2 µM (inactive); in the test with MOLT-4 it was 6.43 µM (inactive); in the test on CAKI-1, 42.8 µM (inactive); with NCI/ADR-RES, 6.21 µM (inactive). The GI50 with CCRF-CEM was 3.33 µM (inactive); in the test on RXF 393, 27.9 µM (inactive); in the test with MDA-N, 3.18 µM (inactive); in the test with U-251, 6.32 µM (inactive); in the test on LOX IMVI, 5.31 µM (inactive); in the test with K562 it was 4.59 µM (inactive). Also, the GI50 in the test with SF-295 was 8.15 µM (inactive).
Consider `C=C1C(=O)C[C@H]2C(=C)C(=O)O[C@@H]2C2C1CC[C@@]2(C)O` (stereo not given in full), for which the GI50 is 33.1 µM (inactive) with IGROV-1; 19.9 µM (inactive) in the test on 786-0; > 10 µM (inactive) in the test with OVCAR-4; 44.4 µM (inactive) in the test on A549; 50 µM (inactive) with KM12; > 100 µM (inactive) in the test on HL-60. Also, the GI50 is 19 µM (inactive) in the test with HCC 2998; 30.3 µM (inactive) in the test with MDA-MB-435; 42.6 µM (inactive) in the test with SN12C; 23.2 µM (inactive) in the test with MOLT-4; 16.7 µM (inactive) with CAKI-1; 26.2 µM (inactive) in the test with NCI/ADR-RES. Also, the GI50 in the test with CCRF-CEM is > 100 µM (inactive); in the test on RXF 393, 15.4 µM (inactive); in the test with MDA-N, 29.7 µM (inactive); with U-251 it was 45.6 µM (inactive); in the test on LOX IMVI, 17.5 µM (inactive); with K562, 16.3 µM (inactive). The GI50 with SF-295 is > 100 µM (inactive).
Regarding `Cc1[nH]c(=O)[nH]c(=S)c1C(=O)NC(C)(CO)CO`, the GI50 in the test on IGROV-1, in the test on 786-0, in the test with OVCAR-4, in the test on A549, in the test on KM12 and with HL-60 was > 100 µM (inactive) each time. The GI50 with HCC 2998, in the test with MDA-MB-435, in the test with SN12C, in the test on MOLT-4, in the test with CAKI-1 and in the test with NCI/ADR-RES was > 100 µM (inactive) each time. In addition, the GI50 with CCRF-CEM, with RXF 393, with MDA-N, with U-251, with LOX IMVI and with K562 was > 100 µM (inactive) throughout. For the same compound, the GI50 with SF-295 is > 100 µM (inactive).
`CC(=O)N[C@@H](Cc1ccc(O)cn1)C(=O)NCc1cccc(Cl)c1`: the GI50 was > 100 µM (inactive) in the test with IGROV-1; > 100 µM (inactive) in the test on 786-0; > 100 µM (inactive) in the test on OVCAR-4; > 100 µM (inactive) in the test with A549; > 100 µM (inactive) with KM12; 37.8 µM (inactive) with HL-60. Also, the GI50 in the test on HCC 2998, in the test with MDA-MB-435, in the test on SN12C, with MOLT-4, with CAKI-1 and in the test on NCI/ADR-RES was > 100 µM (inactive) in each case. Moreover, the GI50 with CCRF-CEM, with RXF 393, with MDA-N, in the test on U-251, in the test on LOX IMVI and in the test with K562 was > 100 µM (inactive) in each case. Besides, the GI50 in the test with SF-295 was > 100 µM (inactive).
`N#C[BH2-][n+]1cn(C2CC(OP(=O)(O)OCC3OC(n4cnc5c(N)ncnc54)CC3O)C(CO)O2)c2nc(N)[nH]c(=O)c21` (stereo not given): the GI50 with IGROV-1, in the test with 786-0, in the test with OVCAR-4, in the test with A549, with KM12 and in the test on HL-60 was > 100 µM (inactive) each time. In addition, the GI50 in the test on HCC 2998, in the test on MDA-MB-435, in the test on SN12C, in the test on MOLT-4, in the test with CAKI-1 and in the test on NCI/ADR-RES was > 100 µM (inactive) in each case. Moreover, the GI50 in the test on CCRF-CEM, in the test on RXF 393, with MDA-N, with U-251, with LOX IMVI and with K562 was > 100 µM (inactive) each time. Further, the GI50 in the test on SF-295 was > 100 µM (inactive).
Consider `COc1ccc(C(=O)c2sc(Nc3ccc(Cl)cc3)nc2N)cc1`, for which the GI50 in the test with IGROV-1 is 5.93 µM (inactive); with 786-0, 7.8 µM (inactive); in the test with OVCAR-4 it was 12.6 µM (inactive); with A549, 6.15 µM (inactive); in the test on KM12 it was 4.48 µM (inactive); with HL-60 it was 0.473 µM (active). The GI50 in the test with HCC 2998 was 4.91 µM (inactive); with MDA-MB-435, 2.2 µM (inactive); in the test on SN12C, 21.6 µM (inactive); in the test on MOLT-4, 4.04 µM (inactive); with CAKI-1, 16.4 µM (inactive); in the test with NCI/ADR-RES, 5.37 µM (inactive). The GI50 with CCRF-CEM was 2.52 µM (inactive); in the test with RXF 393 it was 14.1 µM (inactive); in the test with MDA-N, 2.37 µM (inactive); in the test on U-251 it was 10.7 µM (inactive); in the test on LOX IMVI, 9.42 µM (inactive); with K562, 3.82 µM (inactive). Also, the GI50 with SF-295 is 11.1 µM (inactive).
